Laboratory results: patent US20240091385A1, “METHODS OF ASSESSING SELECTIVE GLUCOCORTICOID RECEPTOR MODULATION AND OF IDENTIFYING AND TREATING PATIENTS LIKELY TO BENEFIT FROM GLUCOCORTICOID RECEPTOR MODULATION” (Corcept Therapeutics Incorporated, priority 2022, published 2024)

Legend:
other hormone receptors = conditions: cited from earlier work
[1] = test system: GR target genes in whole blood; assay: Whole blood RNA fold change (NanoString 444-gene panel), randomized phase 2 ovarian cancer study NCT03776812; assay type: in vivo, human; conditions: ovarian phase 2 study, summary statement
Protocol: This phase 2, open-label, randomized, 3-arm study was performed in accordance with the principles of the Declaration of Helsinki, the Good Clinical Practice guidelines of the International Council on Harmonisation, and local regulatory requirements. The protocol was approved by the institutional review board or independent ethics committee at each investigative site. All patients or their legally authorized representatives provided written informed consent. […] Blood (2.5 mL) was drawn into a […] blood RNA tube (Qiagen) using a butterfly needle. The tube was sealed and gently inverted 10 times. The tube was frozen in dry ice and stored at -80° C. until RNA extraction. […] (Nanostring Technologies, Seattle WA, USA). […] For baseline only analyses, gene abundance is reported as normalized counts. Data were analyzed and adjusted P-values (with Benjamini-Yekutieli false discovery rate corrections) were determined in nSolver 4.0 (NanoString Technologies, Seattle, WA). Cross validated random forest techniques were used to derive a gene signature that could distinguish the relacorilant+nab-paclitaxel group from nab-paclitaxel alone ([…], Poland, Study WO5).

CLEC10A = assay: Whole blood CLEC10A RNA after prednisone in healthy volunteers (NCT03335956); assay type: in vivo, human
Protocol: This was a Phase 1 single-ascending dose (SAD) and multiple-ascending dose (MAD) study to assess the safety and pharmacological activity of exicorilant. Co-dosing of exicorilant with prednisone 25 mg, and comparison to the effects of prednisone alone, established the pharmacological activity of exicorilant. Only the specimens collected after dosing with prednisone alone were analyzed for the studies described below. Blood was collected in the morning prior to dosing in PAXgene RNA tubes. 4 hours after a dose of prednisone 25 mg, blood was drawn again. […] (Nanostring Technologies, Seattle WA, USA).

Row | Structure (SMILES) | affinity for other hormone receptors (other hormone receptors) | CLEC10A expression in whole blood [1] | CLEC10A fold change (CLEC10A; 4 hours after prednisone 25 mg, adj P=6.4×10^−8) | CLEC10A expression in whole blood (CLEC10A; prednisone 25 mg)
1 | Cn1ncc(S(=O)(=O)N2CC[C@H]3Cc4c(cnn4-c4ccc(F)cc4)C[C@]3(C(=O)c3cc(C(F)(F)F)ccn3)C2)n1 [exicorilant, ((4aR,8aS)-1-(4-fluorophenyl)-6-((2-methyl-2H-1,2,3-triazol-4-yl)sulfonyl)-4,4a,5,6,7,8,8a,9-octahydro-1H-pyrazolo[3,4-g]isoquinolin-4a-yl)(4-(trifluoromethyl)pyridin-2-yl)methanone] | no affinity |  |  | 
2 | Cn1cc(S(=O)(=O)N2CCC3=Cc4c(cnn4-c4ccc(F)cc4)C[C@]3(C(=O)c3cc(C(F)(F)F)ccn3)C2)cn1 [relacorilant, (R)-(1-(4-fluorophenyl)-6-((1-methyl-1H-pyrazol-4-yl)sulfonyl)-4,4a,5,6,7,8-hexahydro-1H-pyrazolo[3,4-g]isoquinolin-4a-yl)(4-(trifluoromethyl)pyridin-2-yl)methanone] | no affinity | induced |  | 
3 | C[C@]12C=CC(=O)C=C1CC[C@@H]1[C@@H]2C(=O)C[C@@]2(C)[C@H]1CC[C@]2(O)C(=O)CO [prednisone] |  |  | 0.37 | suppressed
